From PubChem BioAssay (NCI)
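Interpolation was linear, between the two tested concentrations surrounding the appropriate level; five concentrations were tested over 48 hours in 96-well plates. Abbreviation: GI50, concentration required for 50% inhibition of growth. TGI: total growth inhibition.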

Legend:
Experiment in all cases: NCI-60 cell line screen, 48 h
SF-295 CNS = test system: SF-295 CNS
SK-MEL-5 melanoma = test system: SK-MEL-5 melanoma
HOP-92 NSCLC = test system: HOP-92 NSCLC
NCI/ADR-RES ovarian = test system: NCI/ADR-RES ovarian
TK-10 renal = test system: TK-10 renal
SF-268 CNS = test system: SF-268 CNS
NCI-H23 lung = test system: NCI-H23 lung
DU-145 prostate = test system: DU-145 prostate
A549 NSCLC = test system: A549 NSCLC
KM12 colon = test system: KM12 colon
PC-3 prostate = test system: PC-3 prostate
HOP-62 NSCLC = test system: HOP-62 NSCLC
T-47D breast = test system: T-47D breast
BT-549 breast = test system: BT-549 breast
LOX IMVI melanoma = test system: LOX IMVI melanoma
CCRF-CEM leukemia = test system: CCRF-CEM leukemia
MALME-3M melanoma = test system: MALME-3M melanoma
UO-31 renal = test system: UO-31 renal
EKVX NSCLC = test system: EKVX NSCLC
MOLT-4 leukemia = test system: MOLT-4 leukemia
SK-MEL-28 melanoma = test system: SK-MEL-28 melanoma
NCI-H522 lung = test system: NCI-H522 lung
SK-OV-3 ovarian = test system: SK-OV-3 ovarian
RPMI-8226 leukemia = test system: RPMI-8226 leukemia
HCC-2998 colon = test system: HCC-2998 colon
UACC-62 melanoma = test system: UACC-62 melanoma
SN12C renal = test system: SN12C renal
OVCAR-5 ovarian = test system: OVCAR-5 ovarian
OVCAR-4 ovarian = test system: OVCAR-4 ovarian
U251 CNS = test system: U251 CNS
A498 renal = test system: A498 renal
COLO 205 colon = test system: COLO 205 colon
SNB-75 CNS = test system: SNB-75 CNS
OVCAR-3 ovarian = test system: OVCAR-3 ovarian
NCI-H226 lung = test system: NCI-H226 lung
HT29 colon = test system: HT29 colon
SNB-19 CNS = test system: SNB-19 CNS
ACHN renal = test system: ACHN renal
RXF 393 renal = test system: RXF 393 renal
K-562 leukemia = test system: K-562 leukemia
HCT-116 colon = test system: HCT-116 colon
HS 578T breast = test system: HS 578T breast
SK-MEL-2 melanoma = test system: SK-MEL-2 melanoma
MCF7 breast = test system: MCF7 breast
CAKI-1 renal = test system: CAKI-1 renal
SW-620 colon = test system: SW-620 colon
IGROV1 ovarian = test system: IGROV1 ovarian
OVCAR-8 ovarian = test system: OVCAR-8 ovarian
UACC-257 melanoma = test system: UACC-257 melanoma
HL-60(TB) leukemia = test system: HL-60(TB) leukemia
NCI-H460 lung = test system: NCI-H460 lung
M14 melanoma = test system: M14 melanoma
MDA-MB-435 = test system: MDA-MB-435
786-0 renal = test system: 786-0 renal
HCT-15 colon = test system: HCT-15 colon
MDA-MB-231 breast = test system: MDA-MB-231 breast

SMILES: NC(N)=NN=C(c1ccccc1)c1ccccc1
- GI50 (SF-295 CNS): 2.9 µM
- TGI (SF-295 CNS): 16 µM
- GI50 (SK-MEL-5 melanoma): 3.06 µM
- TGI (SK-MEL-5 melanoma): 14.7 µM
- GI50 (HOP-92 NSCLC): 2.14 µM
- TGI (HOP-92 NSCLC): 55.1 µM
- GI50 (NCI/ADR-RES ovarian): 19.7 µM
- TGI (NCI/ADR-RES ovarian): > 100 µM
- GI50 (TK-10 renal): 5.75 µM
- TGI (TK-10 renal): > 100 µM
- GI50 (SF-268 CNS): 6.8 µM
- TGI (SF-268 CNS): > 100 µM
- GI50 (NCI-H23 lung): 6.04 µM
- TGI (NCI-H23 lung): > 100 µM
- GI50 (DU-145 prostate): 3.45 µM
- TGI (DU-145 prostate): > 100 µM
- GI50 (A549 NSCLC): 4.03 µM
- TGI (A549 NSCLC): > 100 µM
- GI50 (KM12 colon): 2.53 µM
- TGI (KM12 colon): 20 µM
- GI50 (PC-3 prostate): 2.95 µM
- TGI (PC-3 prostate): > 100 µM
- GI50 (HOP-62 NSCLC): 6.75 µM
- TGI (HOP-62 NSCLC): > 100 µM
- GI50 (T-47D breast): 6.65 µM
- TGI (T-47D breast): > 100 µM
- GI50 (BT-549 breast): 5.51 µM
- TGI (BT-549 breast): 65.3 µM
- GI50 (LOX IMVI melanoma): 6.09 µM
- TGI (LOX IMVI melanoma): 51.8 µM
- GI50 (CCRF-CEM leukemia): 4.38 µM
- TGI (CCRF-CEM leukemia): > 100 µM
- GI50 (MALME-3M melanoma): 2.99 µM
- TGI (MALME-3M melanoma): 19.1 µM
- GI50 (UO-31 renal): 4.48 µM
- TGI (UO-31 renal): > 100 µM
- GI50 (EKVX NSCLC): 6.82 µM
- TGI (EKVX NSCLC): > 100 µM
- GI50 (MOLT-4 leukemia): 8.82 µM
- TGI (MOLT-4 leukemia): 91.7 µM
- GI50 (SK-MEL-28 melanoma): 5.82 µM
- TGI (SK-MEL-28 melanoma): 36.9 µM
- GI50 (NCI-H522 lung): 2.38 µM
- TGI (NCI-H522 lung): 8.51 µM
- GI50 (SK-OV-3 ovarian): 3.31 µM
- TGI (SK-OV-3 ovarian): 23.7 µM
- GI50 (RPMI-8226 leukemia): 3.97 µM
- TGI (RPMI-8226 leukemia): 17.8 µM
- GI50 (HCC-2998 colon): 4.49 µM
- TGI (HCC-2998 colon): 20.4 µM
- GI50 (UACC-62 melanoma): 4.64 µM
- TGI (UACC-62 melanoma): 42.5 µM
- GI50 (SN12C renal): 6.25 µM
- TGI (SN12C renal): > 100 µM
- GI50 (OVCAR-5 ovarian): 7.94 µM
- TGI (OVCAR-5 ovarian): > 100 µM
- GI50 (OVCAR-4 ovarian): 5.16 µM
- TGI (OVCAR-4 ovarian): 93.6 µM
- GI50 (U251 CNS): 3.5 µM
- TGI (U251 CNS): 24.6 µM
- GI50 (A498 renal): 3.49 µM
- TGI (A498 renal): > 100 µM
- GI50 (COLO 205 colon): 1.91 µM
- TGI (COLO 205 colon): 4.19 µM
- GI50 (SNB-75 CNS): 3.49 µM
- TGI (SNB-75 CNS): > 100 µM
- GI50 (OVCAR-3 ovarian): 2.15 µM
- TGI (OVCAR-3 ovarian): 5.49 µM
- GI50 (NCI-H226 lung): 14.1 µM
- TGI (NCI-H226 lung): > 100 µM
- GI50 (HT29 colon): 2.89 µM
- TGI (HT29 colon): 17.8 µM
- GI50 (SNB-19 CNS): 7.69 µM
- TGI (SNB-19 CNS): > 100 µM
- GI50 (ACHN renal): 4.13 µM
- TGI (ACHN renal): > 100 µM
- GI50 (RXF 393 renal): 1.71 µM
- TGI (RXF 393 renal): 3.93 µM
- GI50 (K-562 leukemia): 4.35 µM
- TGI (K-562 leukemia): 27.5 µM
- GI50 (HCT-116 colon): 3.53 µM
- TGI (HCT-116 colon): 89.7 µM
- GI50 (HS 578T breast): 1.78 µM
- TGI (HS 578T breast): 7.91 µM
- GI50 (SK-MEL-2 melanoma): 2.16 µM
- TGI (SK-MEL-2 melanoma): 13.9 µM
- GI50 (MCF7 breast): 2.28 µM
- TGI (MCF7 breast): 41.7 µM
- GI50 (CAKI-1 renal): 3.77 µM
- TGI (CAKI-1 renal): > 100 µM
- GI50 (SW-620 colon): 3.63 µM
- TGI (SW-620 colon): 41.5 µM
- GI50 (IGROV1 ovarian): 4.32 µM
- TGI (IGROV1 ovarian): 87.6 µM
- GI50 (OVCAR-8 ovarian): 3.87 µM
- TGI (OVCAR-8 ovarian): 39.8 µM
- GI50 (UACC-257 melanoma): 9.79 µM
- TGI (UACC-257 melanoma): 41.9 µM
- GI50 (HL-60(TB) leukemia): 3.11 µM
- TGI (HL-60(TB) leukemia): 12.1 µM
- GI50 (NCI-H460 lung): 3.51 µM
- TGI (NCI-H460 lung): 17.3 µM
- GI50 (M14 melanoma): 2.64 µM
- TGI (M14 melanoma): 9.3 µM
- GI50 (MDA-MB-435): 0.612 µM
- TGI (MDA-MB-435): 2.94 µM
- GI50 (786-0 renal): 4.71 µM
- TGI (786-0 renal): 36.2 µM
- GI50 (HCT-15 colon): 3.25 µM
- TGI (HCT-15 colon): > 100 µM
- GI50 (MDA-MB-231 breast): 4.3 µM
- TGI (MDA-MB-231 breast): 40.8 µM
